Measurements: patent US9493537B2, “Compounds with reduced ring size for use in diagnosing and treating melanoma, including metastatic melanoma and methods related to same” (STC.UNM, priority 2009, dated 2016)
Read-outs that look alike come from different tables or passages of the source.

How the values were obtained:
B16/F1 melanoma = conditions: literature, cited from earlier work
[1] = In vitro serum stability in mouse serum; assay type: in vitro ADME; conditions: 37° C., 24 h
Description: After the incubation, 10 μL of 0.5% EDTA aqueous solution was added into the reaction vial to scavenge potential unbound ^111In^3+ ions. The radiolabeled peptide was purified to single species by Waters RP-HPLC (Milford, Mass.) on a Grace Vydac C-18 reverse phase analytical column (Deerfield, Ill.) using a 20-minute gradient of 18-28% acetonitrile in 20 mM HCl aqueous solution with a flow rate of 1.0 mL/min. Purified peptide sample was purged with N2 gas for 20 minutes to remove the acetonitrile. The pH of final solution was adjusted to 7.4 with 0.1 N NaOH and sterile normal saline for animal studies.
Briefly, 50 μL of ^111InCl3 (37-74 MBq in 0.05 M HCl aqueous solution), 10 μL of 1 mg/mL peptide aqueous solution and 400 μL of 0.5 M NH4OAc (pH 4.5) were added into a reaction vial and incubated at 75° C. for 45 mins. After the incubation, 10 μL of 0.5% EDTA (ethylenediaminetetraacetic acid) aqueous solution was added into the reaction vial to scavenge potential unbound ^111In^3+ ions. The radiolabeled complexes were purified to single species by Waters RP-HPLC (Milford, Mass.) on a Grace Vydac C-18 reverse phase analytical column (Deerfield, Ill.) using the following gradient at a 1 mL/min flowrate. The mobile phase consisted of solvent A (20 mM HCl aqueous solution) and solvent B (100% CH3CN). The gradient was initiated and kept at 82:18 A/B for 3 mins followed by a linear gradient of 82:18 A/B to 72:28 A/B over 20 mins. Then, the gradient was changed from 72:28 A/B to 10:90 A/B over 3 mins followed by an additional 5 mins at 10:90 A/B. Thereafter, the gradient was changed from 10:90 AB to 82:18 AB over 3 mins. Each purified peptide sample was purged with N2 gas for 20 mins to remove the acetonitrile. The pH of the final solution was adjusted to 7.4 with 0.1 N NaOH and sterile saline for animal studies. In vitro serum stability of ^111In-DOTA-GGNle-CycMSHhex and ^111In-DOTA-GENle-CycMSHhex were determined by incubation in mouse serum at 37° C. for 24 h and monitored for degradation by RP-HPLC.

serum stability by RP-HPLC [1]: stable
Structure (SMILES): CCCC[C@H](NC(=O)CN1CCN(CC(=O)O)CCN(CC(=O)O)CCN(CC(=O)O)CC1)C(=O)N[C@H]1CC(=O)NCCCC[C@@H](C(N)=O)NC(=O)[C@H](Cc2c[nH]c3ccccc23)NC(=O)[C@H](CCCNC(=N)N)NC(=O)[C@@H](Cc2ccccc2)NC(=O)[C@H](Cc2c[nH]cn2)NC1=O [^111In-DOTA-Nle-CycMSHhex, metal not drawn]
tumor (melanoma) uptake (B16/F1 melanoma; 0.5 h post-injection): 24.94±4.58 % ID/g
tumor (melanoma) uptake (B16/F1 melanoma; 2 h post-injection): 19.39±1.65 % ID/g
tumor (melanoma) uptake (B16/F1 melanoma; 4 h post-injection): 17.01±2.54 % ID/g
